The text below walks through data of US12122761B2, “2-azaspiro[3.4]octane derivatives as M4 agonists” (NOVARTIS AG, priority 2019, dated 2024).

In assay [1] the target is T1, Cloned human M1 receptor (CHRM1) stably expressed in HEK293 cells (Homo sapiens, UniProt P11229).
T1 construct: expressed in transfected cells; host or cells: HEK293
T1 sequence (P11229 1-460): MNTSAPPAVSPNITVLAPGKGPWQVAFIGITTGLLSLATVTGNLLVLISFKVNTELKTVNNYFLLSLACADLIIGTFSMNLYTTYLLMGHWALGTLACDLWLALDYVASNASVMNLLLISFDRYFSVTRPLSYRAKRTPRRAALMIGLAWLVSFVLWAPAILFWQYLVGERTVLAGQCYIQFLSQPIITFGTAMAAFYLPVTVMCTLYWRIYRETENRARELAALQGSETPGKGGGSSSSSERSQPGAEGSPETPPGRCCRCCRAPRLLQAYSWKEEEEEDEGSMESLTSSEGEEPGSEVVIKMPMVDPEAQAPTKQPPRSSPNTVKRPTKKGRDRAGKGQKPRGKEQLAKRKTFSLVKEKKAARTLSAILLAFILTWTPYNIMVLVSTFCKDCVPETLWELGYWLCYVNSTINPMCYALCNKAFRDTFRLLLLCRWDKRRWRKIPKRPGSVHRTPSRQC
The assay can be described thus: CHRM1 Ca++ Flux Assay (agonist mode, FDSS 7000EX). Format: cell-based. Particulars: for M1 FDSS PA: Percent Activity; for EC50: geometric mean if tested more than once. On the procedure: The above examples were characterized by measuring the intracellular mobilization of Ca++ ions caused by signaling events mediated by the receptor. The Intra-cellular Calcium flux levels were captured by the highly sensitive Ca++ indicator, Calcium Assay Kit (BD Biosciences, Catalog Number 640178). The fluorescent activity from all receptors were monitored by the fluorescent imager, FDSS 7000EX (Hamamatsu) over a span of 3 minutes.
Cloned human M1 receptor (CHRM1) was stably expressed in HEK293 cells and were grown and maintained in a monolayer culture with DMEM/High Glucose (Life Technologies) supplemented with 10% Fetal Bovine Serum, 1× Pen-Strep, and 0.5 mg/mL Geneticin in a humidified atmosphere (5% CO2) at 37° C. The cultures were grown to 90% confluency in T150 flasks (Corning) and washed with 1×DPBS and lifted with 0.05% Trypsin (Life Technologies). The cells were then spun (1K rpm, 3 minutes) and frozen using Recovery Cell Culture Freezing Media (Gibco Technologies). Cells were stored in liquid nitrogen and thawed a day before the assay.
Prior to the day of the assay, stable HEK293 M1 cells were thawed and plated on 384 well black walled clear bottom TC treated plates (Greiner Cat #781091) at 25K cells/well with DMEM/High Glucose supplemented with 10% FBS (Hyclone) Pen-Strep (Life Technologies) and kept overnight in a humidified atmosphere (5% CO2) at 37° C. The following day, cells were loaded with 20 uL Ca^++ dye (BD Biosciences) using Loading Buffer (HBSS +Ca/+Mg, 20 mM HEPES) and placed back in cell incubator for a minimum of 1 hour. The dye was replaced with 45 μL Assay Buffer (HBSS −Ca/−Mg, 20 mM HEPES) and kept at room temperature prior to running on cell imager. Compounds were prepared in Assay Buffer and 5 uL was added to the cells. The FDSS 7000EX (Hamamatsu) was used to acquire Ca++ traces for 3 minutes from cells treated with 11 point dose in triplicate in order to generate dose response curves in agonist mode. All compounds were serially diluted in DMSO then prepared in Assay Buffer for Ca^++ flux studies. The dose response curves were generated from the average of triplicate wells obtained from each data point and used a non-linear regression of four parameter dose response algorithm. The Percent Activity (PA) was measured to EC100 of Carbachol.

In assay [2] the target is T2, human cloned CHRM3 receptor (M3_CHO cells) (Homo sapiens, UniProt P20309).
T2 construct: expressed in transfected cells; host or cells: CHO-K1
The assay is described as follows: CHRM3 Ca++ Flux Assay (agonist mode, FDSS 7000EX). Format: cell-based. The note with it: for M3 FDSS PA: Percent Activity measured to EC100 of Carbachol; for EC50: agonist mode, geometric mean if tested more than once, read-out: M3 FDSS EC50. The procedure, abridged: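 CHO-K1 cells stably expressing human M3 or M5 receptor were dye-loaded for at least 1 h in HBSS with 20 mM HEPES and 2.5 mM probenecid, then given 11-point compound doses in triplicate.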

Where only a bound is given, the exact number is not on record here.

T2 sequence (P20309 whole entry): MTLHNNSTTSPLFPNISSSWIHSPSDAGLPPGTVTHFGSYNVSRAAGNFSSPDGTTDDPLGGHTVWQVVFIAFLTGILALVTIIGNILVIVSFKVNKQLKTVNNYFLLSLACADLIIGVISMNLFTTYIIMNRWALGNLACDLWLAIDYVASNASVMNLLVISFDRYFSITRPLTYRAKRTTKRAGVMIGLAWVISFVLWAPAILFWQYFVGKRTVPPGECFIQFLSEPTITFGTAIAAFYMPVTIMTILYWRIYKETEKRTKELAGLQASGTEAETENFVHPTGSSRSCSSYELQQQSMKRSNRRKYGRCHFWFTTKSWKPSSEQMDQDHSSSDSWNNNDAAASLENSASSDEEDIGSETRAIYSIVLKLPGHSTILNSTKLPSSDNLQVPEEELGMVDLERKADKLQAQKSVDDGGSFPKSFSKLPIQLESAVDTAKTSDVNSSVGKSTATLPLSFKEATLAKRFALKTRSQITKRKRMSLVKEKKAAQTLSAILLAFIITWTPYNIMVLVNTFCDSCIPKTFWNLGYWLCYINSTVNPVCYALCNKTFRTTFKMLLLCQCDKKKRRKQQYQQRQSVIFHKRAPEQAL

With `Cc1nc(COc2ccccc2C2CCN([C@@H]3CCC4(C3)CN(C(=O)C3(F)CC3)C4)CC2)no1` (single isomer, unassigned) [Example 7Z, (R)-(1-fluorocyclopropyl)(6-(4-(2-((5-methyl-1,2,4-oxadiazol-3-yl)methoxy)phenyl)piperidin-1-yl)-2-azaspiro[3.4]octan-2-yl)methanone or (S)-(1-fluorocyclopropyl)(6-(4-(2-((5-methyl-1,2,4-oxadiazol-3-yl)methoxy)phenyl)piperidin-1-yl)-2-azaspiro[3.4]octan-2-yl)methanone], in assay [1], the “M1 FDSS PA” value is recorded as 77% and the midpoint of the response, the EC50, lay at 211 nM. Further, in assay [2], the “M3 FDSS PA” value came to 0% and the EC50 is above 25000 nM.
Taken in the same sequence, the figures for `COc1ccc(Cl)cc1C1CCN([C@H]2CCC3(C2)CN(C(=O)C2(F)CC2)C3)CC1` (single isomer, unassigned) [Example 8A, (S)-(6-(4-(5-chloro-2-methoxyphenyl)piperidin-1-yl)-2-azaspiro[3.4]octan-2-yl)(1-fluorocyclopropyl)methanone or (R)-(6-(4-(5-chloro-2-methoxyphenyl)piperidin-1-yl)-2-azaspiro[3.4]octan-2-yl)(1-fluorocyclopropyl)methanone] were 16%, 438 nM, 0% and above 25000 nM.
In the case of `COc1ccc(Cl)cc1C1CCN([C@H]2CCC3(C2)CN(C(=O)C2(F)CC2)C3)CC1` (single isomer, unassigned) [Example 8B, (S)-(6-(4-(5-chloro-2-methoxyphenyl)piperidin-1-yl)-2-azaspiro[3.4]octan-2-yl)(1-fluorocyclopropyl)methanone or (R)-(6-(4-(5-chloro-2-methoxyphenyl)piperidin-1-yl)-2-azaspiro[3.4]octan-2-yl)(1-fluorocyclopropyl)methanone], in assay [1], the “M1 FDSS PA” value came out at 63% and the EC50 came out at 30 nM. Moreover, in assay [2], the “M3 FDSS PA” value amounted to 0% and the EC50 was above 25000 nM.
For `O=C(N1CC2(CC[C@@H](N3CCC(c4ccccc4OC(F)(F)F)CC3)C2)C1)C1(F)CC1` (single isomer, unassigned) [Example 9A, (R)-(1-fluorocyclopropyl)(6-(4-(2-(trifluoromethoxy)phenyl)piperidin-1-yl)-2-azaspiro[3.4]octan-2-yl)methanone or (S)-(1-fluorocyclopropyl)(6-(4-(2-(trifluoromethoxy)phenyl)piperidin-1-yl)-2-azaspiro[3.4]octan-2-yl)methanone], in assay [1], the “M1 FDSS PA” value came to 43% and the midpoint of the response, the EC50, lay at 2650 nM. Besides, in assay [2], the “M3 FDSS PA” value is 0% and the EC50 is above 25000 nM.
For `O=C(N1CC2(CC[C@@H](N3CCC(c4ccccc4OC(F)(F)F)CC3)C2)C1)C1(F)CC1` (single isomer, unassigned) [Example 9B, (R)-(1-fluorocyclopropyl)(6-(4-(2-(trifluoromethoxy)phenyl)piperidin-1-yl)-2-azaspiro[3.4]octan-2-yl)methanone or (S)-(1-fluorocyclopropyl)(6-(4-(2-(trifluoromethoxy)phenyl)piperidin-1-yl)-2-azaspiro[3.4]octan-2-yl)methanone], in assay [1], the “M1 FDSS PA” value is 55% and the concentration for a half-maximal effect (EC50) turned out to be 47 nM. Moreover, in assay [2], the “M3 FDSS PA” value was determined as 0% and the EC50 was above 25000 nM.
As to `O=C(N1CC2(CC[C@@H](N3CCC(c4cc(F)ccc4OC4CCOCC4)CC3)C2)C1)C1(F)CC1` (single isomer, unassigned) [Example 9C, (R)-(6-(4-(5-fluoro-2-((tetrahydro-2H-pyran-4-yl)oxy)phenyl)piperidin-1-yl)-2-azaspiro[3.4]octan-2-yl)(1-fluorocyclopropyl)methanone or (S)-(6-(4-(5-fluoro-2-((tetrahydro-2H-pyran-4-yl)oxy)phenyl)piperidin-1-yl)-2-azaspiro[3.4]octan-2-yl)(1-fluorocyclopropyl)methanone], in assay [1], the “M1 FDSS PA” value worked out at 27% and the EC50 was 48 nM. Also, in assay [2], the “M3 FDSS PA” value is on record as 0% and the EC50 was above 25000 nM.
For `O=C(N1CC2(CC[C@@H](N3CCC(c4cc(F)ccc4OC4CCOCC4)CC3)C2)C1)C1(F)CC1` (single isomer, unassigned) [Example 9D, (R)-(6-(4-(5-fluoro-2-((tetrahydro-2H-pyran-4-yl)oxy)phenyl)piperidin-1-yl)-2-azaspiro[3.4]octan-2-yl)(1-fluorocyclopropyl)methanone or (S)-(6-(4-(5-fluoro-2-((tetrahydro-2H-pyran-4-yl)oxy)phenyl)piperidin-1-yl)-2-azaspiro[3.4]octan-2-yl)(1-fluorocyclopropyl)methanone] the same measures were 23%, 1770 nM, 0% and above 25000 nM.
Turning to `O=C(N1CC2(CC[C@@H](N3CCC(c4ccccc4OC4CCOCC4)CC3)C2)C1)C1(F)CC1` (single isomer, unassigned) [Example 9E, (R)-(1-fluorocyclopropyl)(6-(4-(2-((tetrahydro-2H-pyran-4-yl)oxy)phenyl)piperidin-1-yl)-2-azaspiro[3.4]octan-2-yl)methanone or (S)-(1-fluorocyclopropyl)(6-(4-(2-((tetrahydro-2H-pyran-4-yl)oxy)phenyl)piperidin-1-yl)-2-azaspiro[3.4]octan-2-yl)methanone], in assay [1], the “M1 FDSS PA” value was found to be 34% and the response was half-maximal at 120 nM (EC50). In assay [2], the “M3 FDSS PA” value is given as 0% and the EC50 was above 25000 nM.
As to `O=C(N1CC2(CC[C@@H](N3CCC(c4ccccc4OC4CCOCC4)CC3)C2)C1)C1(F)CC1` (single isomer, unassigned) [Example 9F, (R)-(1-fluorocyclopropyl)(6-(4-(2-((tetrahydro-2H-pyran-4-yl)oxy)phenyl)piperidin-1-yl)-2-azaspiro[3.4]octan-2-yl)methanone or (S)-(1-fluorocyclopropyl)(6-(4-(2-((tetrahydro-2H-pyran-4-yl)oxy)phenyl)piperidin-1-yl)-2-azaspiro[3.4]octan-2-yl)methanone], in assay [1], the “M1 FDSS PA” value is on record as 0% and the EC50 was above 25000 nM. Further, in assay [2], the “M3 FDSS PA” value came out at 0% and the EC50 is above 25000 nM.
For `O=C(N1CC2(CC[C@@H](N3CCC(c4ccccc4C4(O)CCOCC4)CC3)C2)C1)C1(F)CC1` (single isomer, unassigned) [Example 9G, (R)-(1-fluorocyclopropyl)(6-(4-(2-(4-hydroxytetrahydro-2H-pyran-4-yl)phenyl)piperidin-1-yl)-2-azaspiro[3.4]octan-2-yl)methanone or (S)-(1-fluorocyclopropyl)(6-(4-(2-(4-hydroxytetrahydro-2H-pyran-4-yl)phenyl)piperidin-1-yl)-2-azaspiro[3.4]octan-2-yl)methanone], in assay [1], the “M1 FDSS PA” value was 16% and the EC50 was 301 nM. In addition, in assay [2], the “M3 FDSS PA” value turned out to be 0% and the concentration giving a half-maximal response (EC50) is above 25000 nM.

The EC50 is the midpoint of the concentration-response curve.
